≈ marks a conversion by molar mass, not a printed value.
How the values were obtained:
[1] = target: T1, Myosin-2 heavy chain (Dictyostelium discoideum, UniProt P08799); experiment: Inhibition of Dictyostelium discoideum myosin 2 ATPase activity
[2] = species on record: Oryctolagus cuniculus; experiment: Inhibition of rabbit skeletal myosin 2 ATPase activity at 5 uM relative to control
[3] = target: Myosin-2 heavy chain (Dictyostelium discoideum) (UniProt P08799); experiment: Inhibition of Dictyostelium discoideum myosin 2 ATPase activity at 50 uM relative to control
[4] = species on record: Oryctolagus cuniculus; experiment: Inhibition of rabbit skeletal myosin 2 ATPase activity at 50 uM relative to control
[5] = Inhibition of human myosin 2a ATPase activity
[6] = test system: DU-145; experiment: Cytotoxicity against human DU145 cells assessed as cell death at 200 uM after 24 hrs relative to control; format: functional
[7] = Steady state aqueous solubility of the compound in 0.1 % DMSO buffer at 25 degC; format: physicochemical; conditions: aqueous buffer with 0.1% DMSO
[8] = test system: DU-145; experiment: Cytotoxicity against human DU145 cells assessed as cell death at 200 uM after 3 hrs relative to control; format: functional
[9] = Toxicity in zebrafish embryo assessed as mortality at 10 uM in presence 0.4 uJ/cm2 of irradiation measured after 36 hrs relative to control; format: organism-based, Danio rerio; conditions: zebrafish embryos, read-out: Activity
[10] = Cytotoxicity against human Fem-X cells assessed as cell death at 200 uM after 24 hrs relative to control; format: functional
[11] = test system: MIA PaCa-2; experiment: Cytotoxicity against human MIAPaCa2 cells assessed as cell death at 400 uM after 24 hrs; format: functional
[12] = test system: LNCaP; experiment: Cytotoxicity against human LNCAP cells assessed as cell death at 200 uM after 3 hrs relative to control; format: functional
[13] = Cytotoxicity against F11-hTERT cells (unknown origin) assessed as cell death at 200 uM after 24 hrs relative to control; format: functional
[14] = test system: U-87 MG; experiment: Cytotoxicity against human U87 cells assessed as cell death at 200 uM after 3 hrs relative to control; format: functional, U-87MG ATCC
[15] = Steady state aqueous solubility of the compound in 10 % DMSO buffer up to 240 mins; format: physicochemical; conditions: 4 h
[16] = Toxicity in Dictyostelium discoideum assessed as mortality at 20 uM after 3 days relative to control; format: organism-based; conditions: Dictyostelium discoideum cells, read-out: Activity
[17] = test system: HeLa; experiment: Cytotoxicity against human HeLa cells assessed as cell death at 20 uM measured after 3 days by trypan blue based light microscopy relative to control
[18] = test system: LNCaP; experiment: Cytotoxicity against human LNCAP cells assessed as cell death at 200 uM after 24 hrs relative to control; format: functional
[19] = test system: PANC-1; experiment: Cytotoxicity against human PANC1 cells assessed as cell death at 400 uM after 24 hrs; format: functional
[20] = test system: Capan-2; experiment: Cytotoxicity against human Capan2 cells assessed as cell death at 400 uM after 24 hrs; format: functional
[21] = test system: U-87 MG; experiment: Cytotoxicity against human U87 cells assessed as cell death at 200 uM after 24 hrs relative to control; format: functional, U-87MG ATCC
[22] = test system: BXPC-3; experiment: Cytotoxicity against human BxPC3 cells assessed as cell death at 400 uM after 24 hrs; format: functional
[23] = Cytotoxicity against human Fem-X cells assessed as cell death at 200 uM after 3 hrs relative to control; format: functional
[24] = Cytotoxicity against F11-hTERT cells (unknown origin) assessed as cell death at 200 uM after 3 hrs relative to control; format: functional
[25] = target: Unconventional myosin-XV (Homo sapiens, UniProt Q9UKN7); experiment: Inhibition of human myosin 15 by NADH-coupled spectrophotometric analysis
[26] = Inhibition of bay scallop striated muscle myosin heavy chain
[27] = Inhibition of chicken smooth muscle myosin 2 ATPase activity preincubated for 60 mins followed by ATP addition measured after 10 mins by malachite green based assay
[28] = target: Myosin IC heavy chain (Acanthamoeba castellanii, UniProt P10569); experiment: Inhibition of dephosphorylated Acanthamoeba […] myosin 1c by NADH-coupled spectrophotometric analysis
[29] = target: Myosin-14 (Mus musculus, UniProt Q6URW6); experiment: Inhibition of mouse non-muscle myosin 2c
[30] = target: Myosin-10 (Homo sapiens, UniProt P35580); experiment: Inhibition of human non-muscle myosin 2b
[31] = Inhibition of Meleagris gallopavo smooth muscle myosin 2 ATPase activity
[32] = target: Myosin heavy chain, non-muscle (Drosophila melanogaster, UniProt Q99323); experiment: Inhibition of fruit fly non-muscle myosin 2
[33] = target: Unconventional myosin-Ib (Rattus norvegicus, UniProt Q05096); experiment: Inhibition of rat myosin 1b by NADH-coupled spectrophotometric analysis
[34] = Inhibition of Bos taurus smooth muscle myosin 2 ATPase activity
[35] = target: Myosin-7 (Sus scrofa, UniProt P79293); experiment: Inhibition of pig beta cardiac myosin 2 by NADH-coupled spectrophotometric analysis
[36] = target: Myosin-9 (Homo sapiens, UniProt P35579); experiment: Inhibition of human non-muscle myosin 2a
[37] = target: Nonmuscle myosin heavy chain (Gallus gallus, UniProt Q789A4); experiment: Inhibition of chicken non-muscle myosin 2b by NADH-coupled spectrophotometric analysis
[38] = target: Myosin-4 (Oryctolagus cuniculus, UniProt Q28641); experiment: Inhibition of rabbit skeletal muscle myosin 2
[39] = target: Myosin-2 heavy chain, non muscle (Acanthamoeba castellanii, UniProt P05659); experiment: Inhibition of dephosphorylated Acanthamoeba non muscle myosin 2 by NADH-coupled spectrophotometric analysis
[40] = target: Unconventional myosin-Va (Mus musculus, UniProt Q99104); experiment: Inhibition of mouse myosin 5a by NADH-coupled spectrophotometric analysis
[41] = target: Unconventional myosin-X (Bos taurus, UniProt P79114); experiment: Inhibition of bovine myosin x by NADH-coupled spectrophotometric analysis
[42] = target: T1, Myosin-2 heavy chain; experiment: Inhibition of Dictyostelium discoideum myosin 2 ATPase activity by NADH-coupled assay

Myosin-2 heavy chain (Dictyostelium discoideum), sequence (P08799 whole entry): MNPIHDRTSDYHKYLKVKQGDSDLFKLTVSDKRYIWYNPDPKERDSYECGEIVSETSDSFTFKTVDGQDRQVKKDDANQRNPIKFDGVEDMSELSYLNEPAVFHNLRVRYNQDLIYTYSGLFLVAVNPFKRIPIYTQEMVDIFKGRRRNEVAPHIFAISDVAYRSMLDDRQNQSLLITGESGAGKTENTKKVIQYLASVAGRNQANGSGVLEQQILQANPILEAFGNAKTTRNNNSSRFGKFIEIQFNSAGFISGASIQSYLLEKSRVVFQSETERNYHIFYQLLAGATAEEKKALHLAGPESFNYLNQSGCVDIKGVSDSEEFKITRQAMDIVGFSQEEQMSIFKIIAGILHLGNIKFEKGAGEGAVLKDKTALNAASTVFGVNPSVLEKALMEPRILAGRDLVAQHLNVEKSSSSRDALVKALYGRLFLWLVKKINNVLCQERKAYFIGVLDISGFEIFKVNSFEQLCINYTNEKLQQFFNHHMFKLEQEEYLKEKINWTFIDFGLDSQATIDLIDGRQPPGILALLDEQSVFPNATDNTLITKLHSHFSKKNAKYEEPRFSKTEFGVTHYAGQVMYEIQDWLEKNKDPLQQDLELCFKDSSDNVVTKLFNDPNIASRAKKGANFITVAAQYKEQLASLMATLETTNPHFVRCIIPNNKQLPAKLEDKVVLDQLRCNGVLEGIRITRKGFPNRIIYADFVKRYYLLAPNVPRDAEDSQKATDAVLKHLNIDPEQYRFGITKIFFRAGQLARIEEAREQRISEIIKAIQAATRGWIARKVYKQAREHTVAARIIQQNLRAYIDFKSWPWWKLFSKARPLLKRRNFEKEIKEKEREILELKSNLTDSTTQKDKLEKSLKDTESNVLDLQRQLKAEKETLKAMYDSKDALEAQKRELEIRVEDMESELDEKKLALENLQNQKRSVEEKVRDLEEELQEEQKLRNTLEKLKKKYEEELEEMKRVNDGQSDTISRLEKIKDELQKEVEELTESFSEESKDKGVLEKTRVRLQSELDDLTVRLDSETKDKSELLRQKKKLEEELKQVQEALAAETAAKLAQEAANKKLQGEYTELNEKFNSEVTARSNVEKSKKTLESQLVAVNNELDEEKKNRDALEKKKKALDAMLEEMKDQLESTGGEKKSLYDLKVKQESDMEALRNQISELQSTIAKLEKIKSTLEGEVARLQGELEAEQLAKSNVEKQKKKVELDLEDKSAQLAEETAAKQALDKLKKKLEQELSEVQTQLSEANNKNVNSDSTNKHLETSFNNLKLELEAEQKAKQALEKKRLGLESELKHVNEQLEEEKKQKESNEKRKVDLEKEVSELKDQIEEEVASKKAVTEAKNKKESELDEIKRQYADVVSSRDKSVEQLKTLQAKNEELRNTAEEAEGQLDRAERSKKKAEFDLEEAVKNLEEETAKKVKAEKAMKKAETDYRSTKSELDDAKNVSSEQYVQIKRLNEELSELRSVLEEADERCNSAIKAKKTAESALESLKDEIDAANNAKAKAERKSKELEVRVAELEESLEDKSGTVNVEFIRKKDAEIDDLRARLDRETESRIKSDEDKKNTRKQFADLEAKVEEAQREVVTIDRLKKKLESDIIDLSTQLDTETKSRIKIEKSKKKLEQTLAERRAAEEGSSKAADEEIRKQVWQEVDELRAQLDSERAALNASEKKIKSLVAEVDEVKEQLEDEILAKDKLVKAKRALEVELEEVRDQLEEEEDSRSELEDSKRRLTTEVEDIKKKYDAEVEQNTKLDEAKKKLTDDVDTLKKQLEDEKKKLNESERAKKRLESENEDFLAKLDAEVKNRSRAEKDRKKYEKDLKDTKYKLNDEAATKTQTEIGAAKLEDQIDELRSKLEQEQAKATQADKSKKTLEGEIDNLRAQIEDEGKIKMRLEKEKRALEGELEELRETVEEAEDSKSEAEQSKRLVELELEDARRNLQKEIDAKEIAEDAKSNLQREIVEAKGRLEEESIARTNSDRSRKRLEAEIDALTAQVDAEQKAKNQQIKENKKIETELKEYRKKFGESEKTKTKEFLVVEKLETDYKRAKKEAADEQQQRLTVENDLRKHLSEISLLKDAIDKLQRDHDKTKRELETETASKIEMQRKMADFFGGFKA
T1 sequence (P08799 whole entry): as above
Myosin-4, sequence (Q28641 whole entry): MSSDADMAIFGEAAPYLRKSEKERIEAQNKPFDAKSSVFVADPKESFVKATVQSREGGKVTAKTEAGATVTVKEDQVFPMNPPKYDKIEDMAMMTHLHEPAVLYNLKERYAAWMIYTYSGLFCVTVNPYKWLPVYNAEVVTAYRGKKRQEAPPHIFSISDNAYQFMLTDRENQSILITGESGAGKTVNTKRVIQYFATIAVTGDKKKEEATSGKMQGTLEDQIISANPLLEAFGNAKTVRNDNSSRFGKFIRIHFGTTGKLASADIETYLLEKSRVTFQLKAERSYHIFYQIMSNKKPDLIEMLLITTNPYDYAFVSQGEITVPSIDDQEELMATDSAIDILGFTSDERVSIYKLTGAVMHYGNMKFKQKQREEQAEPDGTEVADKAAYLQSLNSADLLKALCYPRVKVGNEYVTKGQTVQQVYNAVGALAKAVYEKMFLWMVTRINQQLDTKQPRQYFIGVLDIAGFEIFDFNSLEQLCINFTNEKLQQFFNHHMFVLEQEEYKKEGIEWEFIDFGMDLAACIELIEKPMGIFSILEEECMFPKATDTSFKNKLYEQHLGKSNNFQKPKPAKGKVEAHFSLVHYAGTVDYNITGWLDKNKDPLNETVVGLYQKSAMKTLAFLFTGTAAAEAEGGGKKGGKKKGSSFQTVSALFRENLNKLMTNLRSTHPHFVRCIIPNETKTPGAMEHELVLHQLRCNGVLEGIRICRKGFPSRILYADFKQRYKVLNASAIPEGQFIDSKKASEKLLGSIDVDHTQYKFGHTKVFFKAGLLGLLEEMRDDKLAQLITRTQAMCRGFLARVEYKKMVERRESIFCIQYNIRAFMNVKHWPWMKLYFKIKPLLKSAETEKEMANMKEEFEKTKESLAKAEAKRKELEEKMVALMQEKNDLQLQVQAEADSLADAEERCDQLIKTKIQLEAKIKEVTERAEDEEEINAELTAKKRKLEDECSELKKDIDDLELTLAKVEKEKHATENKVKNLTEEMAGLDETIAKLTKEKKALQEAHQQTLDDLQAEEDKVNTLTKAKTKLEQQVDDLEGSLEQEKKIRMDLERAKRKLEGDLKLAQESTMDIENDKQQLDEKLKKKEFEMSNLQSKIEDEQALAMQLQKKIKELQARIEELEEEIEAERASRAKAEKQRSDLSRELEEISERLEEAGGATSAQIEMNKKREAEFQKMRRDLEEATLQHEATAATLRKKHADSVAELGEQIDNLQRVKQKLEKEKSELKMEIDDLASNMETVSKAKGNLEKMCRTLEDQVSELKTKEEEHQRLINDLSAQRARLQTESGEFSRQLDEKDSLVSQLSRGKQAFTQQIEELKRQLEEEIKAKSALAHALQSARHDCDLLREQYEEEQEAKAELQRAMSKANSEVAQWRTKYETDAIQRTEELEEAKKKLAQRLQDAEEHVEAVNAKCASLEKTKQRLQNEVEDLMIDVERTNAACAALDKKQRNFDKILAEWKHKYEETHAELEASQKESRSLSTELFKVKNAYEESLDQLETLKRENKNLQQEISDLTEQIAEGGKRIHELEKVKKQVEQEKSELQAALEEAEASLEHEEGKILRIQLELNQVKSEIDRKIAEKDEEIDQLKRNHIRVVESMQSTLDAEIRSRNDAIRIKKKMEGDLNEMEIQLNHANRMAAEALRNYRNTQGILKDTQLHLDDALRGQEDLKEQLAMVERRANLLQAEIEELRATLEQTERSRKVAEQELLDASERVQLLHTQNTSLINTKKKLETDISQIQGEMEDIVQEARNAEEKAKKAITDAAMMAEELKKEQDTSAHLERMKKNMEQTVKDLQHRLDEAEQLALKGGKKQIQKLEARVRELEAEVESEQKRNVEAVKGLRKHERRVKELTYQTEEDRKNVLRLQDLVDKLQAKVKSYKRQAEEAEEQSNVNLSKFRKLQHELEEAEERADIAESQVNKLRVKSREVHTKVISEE

Cc1ccc2c(c1)C(=O)[C@]1(O)CCN(c3ccc(Cl)cc3)C1=N2
IC50 [1]: 1.9 µM

Cc1cccc2c1C(=O)[C@]1(O)CCN(c3ccccc3)C1=N2
inhibition [2]: 86% | inhibition [3]: 88% | inhibition [4]: 95%

O=C1c2ccc([N+](=O)[O-])cc2N=C2N(c3ccccc3)CC[C@@]12O
IC50 [5]: 28 µM

Cc1ccc2c(c1)C(=O)[C@]1(O)CCN(c3ccccc3)C1=N2
Activity [6]: 90% | solubility [7]: 7 to 11 µM (≈ 2.05 to 3.22 µg/mL) | Activity [8]: 30% | mortality at 36 h, 10 µM [9]: 100% | Activity [10]: 100% | Activity [11]: 20% | Activity [12]: 10% | Activity [13]: 85% | Activity [14]: 40% | solubility [15]: 80 µM (≈ 23.4 µg/mL) | mortality at 72 h, 20 µM [16]: 0% | Activity [17]: 90% | Activity [18]: 96% | Activity [19]: 0% | Activity [20]: 45% | Activity [21]: 65% | Activity [22]: 25% | Activity [23]: 30% | Activity [24]: 30%

O=C1c2ccccc2N=C2N(c3ccccc3)CC[C@@]12O
inhibition [2]: 84% | inhibition [3]: 88% | inhibition [4]: 95%

Cc1ccc2c(c1)C(=O)C1(O)CCN(c3ccccc3)C1=N2 (racemic)
IC50 [25]: > 100 µM | IC50 [26]: 2.3 µM | IC50 [27]: 5.5 to 23.5 µM | IC50 [28]: > 150 µM | IC50 [29]: 3.2 µM | IC50 [30]: 4.6 µM | IC50 [31]: 80 µM | IC50 [32]: > 200 µM | IC50 [33]: > 150 µM | IC50 [34]: 4.3 to 11 µM | IC50 [35]: 1.2 µM | IC50 [36]: 4 to 14 µM | IC50 [37]: 1.8 µM | IC50 [38]: 0.22 to 4.32 µM | IC50 [39]: 83 µM | IC50 [40]: > 150 µM | IC50 [41]: > 150 µM

Cc1cccc2c1N=C1N(c3ccccc3)CC[C@@]1(O)C2=O
inhibition [2]: 31% | inhibition [3]: 35% | inhibition [4]: 72%

Cc1ccc2c(c1)C(=O)[C@]1(O)CCN(c3ccc([N+](=O)[O-])cc3)C1=N2
IC50 [42]: 2.3 µM | IC50 [38]: 0.4 µM

Cc1ccc2c(c1)C(=O)[C@]1(O)CCN(c3ccc(N=[N+]=[N-])cc3)C1=N2
IC50 [42]: 5.2 µM

Cc1ccc2c(c1)N=C1N(c3ccccc3)CC[C@@]1(O)C2=O
inhibition [2]: 86% | inhibition [3]: 90% | inhibition [4]: 94%
